The source of these data is patent US11771651B2, “Liposomes and uses thereof” (Academia Sinica, priority 2018, dated 2023).

“And” between values parts separate entries of the source, which are not always exact repeats. Identical values can stand only once.

Holding throughout (assay type): cell-based, human
The test system of assay [1] is KB cells. Kind of assay: MTT assay, photo-responsive liposomes. The note with it: DOX apparent concentration, 40 hours incubation. How it is done:
Then, the medium was replaced by the MEM medium (without FBS) containing free DOX, or the MEM medium (without FBS) containing DDL or MDL, in the presence or absence of light irradiation (5 mW/cm^2, 4 minutes), and then incubated at 37° C. for additional 20 hours. The medium was further replaced to MEM with 10% FBS for another 20 hours incubation at 37° C. 20 μl of MTT stock solution (5 mg/ml in PBS) was added to each well incubated at 37° C. for 2 hours, then removed 170 μl of culture medium followed by the addition of 200 μl of DMSO to each well to dissolve the purple formazan product at 37° C. on a 120 rpm reciprocal shaker for 10 minutes. The absorbance of the formazan product in DMSO solution at 540 nm was measured by plate reader so as to estimate cellular viability.
On the technique in general: Formazan colour is commonly taken as a measure of viable cells.

The subject of assay [2] is KB cells. As to the kind of experiment: Endogenous ALP-induced liposomal DOX release by flow cytometer. Conditions: 25 μM, 20 hours, data not shown. How it is done: The cell solution (100 μl) were diluted to 1 ml PBS for flow cytometry analysis.
(In general: Flow cytometry measures light scatter and fluorescence of single cells or particles in a stream.)

Assay [3] deals with KB cells. Kind of assay: MTT assay, phosphatase-responsive liposomes. Conditions: free DOX, ALP status not stated. On the procedure: In the study of the phosphatase-responsive liposomes, KB cells (2×10^4 cells per well) were seeded on a 96 well plate in DMEM with 10% FBS at 37° C. for 20 hours. Then, the medium was replaced by the MEM medium (without FBS) containing DOX liposome, 3-MDL, 4-MDL, 5-MDL, 6-MDL, 7-MDL or free DOX, with or without ALP (50 U/ml), and then incubated at 37° C. for 20 hours. The medium was further replaced to MEM with 10% FBS for another 20 hour incubation at 37° C. 20 μl of MTT stock solution (5 mg/ml in PBS) was added to each well incubated at 37° C. for 2 hours, then removed 170 μl of culture medium followed by the addition of 200 μl of DMSO to each well to dissolve the purple formazan product at 37° C. on a 120 rpm reciprocal shaker for 10 minutes. The absorbance of the formazan product in DMSO solution at 540 nm was measured by plate reader to estimate cellular viability.

As a reminder, the IC50 is the concentration that gives 50% inhibition. On to `COc1cccc2c1C(=O)c1c(O)c3c(c(O)c1C2=O)C[C@@](O)(C(=O)CO)C[C@@H]3O[C@H]1C[C@H](N)[C@H](O)[C@H](C)O1` [DOX, doxorubicin], for which the concentration for half-maximal inhibition (IC50) in assay [1] (UV (irradiated 4 minutes)) is 3 µM and ~3 µM; in assay [1] (dark (non-irradiated)), 0.7 µM and ~0.7 µM; in assay [3], 3 µM. In addition, in assay [2], the “DOX uptake (cellular DOX fluorescence)” value is 100%.
